Experimental data from US10017481B2, “Conformationally constrained, fully synthetic macrocyclic compounds” (POLYPHOR AG, priority 2012, dated 2018).

Experiments:
Format in all cases: in vitro ADME
[1] = Plasma stability assay, CD-1 mouse plasma; settings: for Plasma Stability 240 min mouse/(rat) [% remain.]: CD-1 mouse plasma, 10 μM, 37° C.; for half-life at 10 μM: both sexes, CD-1, mouse, plasma
Description: (§1) 5. Plasma and Metabolic Stability Assays Example compounds were dissolved in DMSO/H2O 90:10 to a final concentration of 10 mM for plasma stability determination and metabolic stability determination. The assays were conducted according to literature precedents (F. P. Guengerich, Analysis and Characterization of Enzymes; in: Principles and Methods of Toxicology, A. W. Hayes (Ed.) Raven Press: New York, 1989, 777-813; R. Singh et al., In vitro metabolism of a potent HIV-protease inhibitor (141W94) using rat, monkey and human liver S9, Rapid Commun. Mass Spectrom. 1996, 10, 1019-1026). Plasma Stability Assay Human plasma (Blutspendedienst SRK, Basel) and CD-1 mouse plasma (mixed gender pool >50 animals, Innovative Research, Calif., USA) are both sodium citrate stabilized. The assay is performed in triplicates at 10 μM compound concentration and 37° C. Samples are taken at 0, 15, 30, 60, 120 and 240 minutes and stopped by precipitation with 3 volumes of acetonitrile/formic acid 98:2 and shaking (2 minutes, 600 rpm) followed by filtration (−20 mm Hg). The filtrate is collected. The filtrate (100 μL) is evaporated and reconstituted in the suitable solvent (cf. Table 33) to be analyzed by HPLC/MS/MS. The resulting peak area counts are expressed in percent of the 0 value and used to determine the endpoint stability in % and the half life T in minutes. In order to monitor assay integrity the degradation of propantheline is assayed with every experimental set.

[2] = Metabolic stability assay, human liver microsomes; settings: human microsomes, 10 μM, 37° C.; for half-life at 10 μM: both sexes, liver microsomes, 1 mg/ml protein, read-out: Metabolic Stability T ½ [min] hum
Description: (§2) 5. Plasma and Metabolic Stability Assays
(§3) Example compounds were dissolved in DMSO/H2O 90:10 to a final concentration of 10 mM for plasma stability determination and metabolic stability determination.
(§4) The assays were conducted according to literature precedents (F. P. Guengerich, Analysis and Characterization of Enzymes; in: Principles and Methods of Toxicology, A. W. Hayes (Ed.) Raven Press: New York, 1989, 777-813; R. Singh et al., In vitro metabolism of a potent HIV-protease inhibitor (141W94) using rat, monkey and human liver S9, Rapid Commun. Mass Spectrom. 1996, 10, 1019-1026).
(§5) Metabolic Stability Assay
(§6) Microsomes from a human 50 donor mixed gender pool and 1:1 mixtures of microsomes from CD-1 mouse single-gender pools are purchased from Celsis (Belgium). The enzymatic reaction is performed in a buffer containing an NADPH regeneration system and microsomes with the following end concentrations: 100 mM potassium phosphate buffer (all from Sigma), 1 mg/mL glucose-6-phosphate, 1 mg/mL β-nicotinamide adenine dinucleotide phosphate (NADP), 0.65 mg/mL magnesium chloride, 0.8 units/mL of glucose-6-phosphate dehydrogenase (prediluted with 5 mM citrate buffer), 10 μM compound and 1 mg/ml microsomal protein. Compounds are incubated at 37° C. in duplicates and samples are taken after 0, 5, 10, 20 and 60 minutes. After acetonitrile precipitation (3 volumes), shaking (2 minutes, 600 rpm) followed by centrifugation (10 minutes, 3200 g), the supernatant is dried reconstituted in the suitable solvent (cf. Table 33) and analyzed by HPLC/MS/MS. Metabolic turnover is expressed in % of the initial 0 minutes value and half life T½ (min) is calculated. Verapamil for human and propranolol for mouse are used as reference and are assayed with every experimental set.

[3] = Metabolic stability assay, CD-1 mouse microsomes; settings: CD-1 mouse microsomes, 10 μM, 37° C.; for half-life at 10 μM: both sexes, 1 mg/ml protein, read-out: Metabolic Stability T ½ [min] mouse/(rat)
Description: as §2, §3, §4, §5, §6

[4] = Plasma stability assay, human plasma; settings: for Plasma Stability 240 min hum [% remain.]: human plasma, 10 μM, 37° C.; for half-life at 10 μM: human, plasma
Description: as §1

SMILES | Plasma Stability 240 min mouse/(rat) [% remain.] [1] | half-life at 10 μM [1] | half-life at 10 μM [2] | Metabolic Stability 60 min hum [% remain.] [2] | Metabolic Stability 60 min mouse/(rat) [% remain.] [3] | half-life at 10 μM [3] | Plasma Stability 240 min hum [% remain.] [4] | half-life at 10 μM [4]
COc1ccc2c(c1)-c1cccc(c1)C(=O)N(C)[C@H](C(=O)NCC(F)(F)F)CCC(=O)N[C@H](C)CO2 [Ex. 53, (10R,15S)-4-methoxy-10,16-dimethyl-12,17-dioxo-N-(2,2,2-trifluoroethyl)-8-oxa-11,16-diazatricyclo[16.3.1.0^2,7]docosa-1(22),2,4,6,18,20-hexaene-15-carboxamide] | 86 % remain. | > 240 min | > 60 min | 100 % remain. | 92 % remain. | > 60 min | – | –
COc1ccc2c(c1)-c1cccc(c1)C(=O)N(C)[C@H](C(=O)NCCO)CCC(=O)N[C@H](C)CO2 [Ex. 55, (10R,15S)-N-(2-hydroxyethyl)-4-methoxy-10,16-dimethyl-12,17-dioxo-8-oxa-11,16-diazatricyclo[16.3.1.0^2,7]docosa-1(22),2,4,6,18,20-hexaene-15-carboxamide] | 80 % remain. | > 240 min | > 60 min | 97 % remain. | 98 % remain. | > 60 min | – | –
COc1ccc2c(c1)-c1cccc(c1)C(=O)N(C)[C@H](C(=O)N[C@@H](C)c1ccccc1)CCC(=O)N[C@H](C)CO2 [Ex. 58, (10R,15S)-4-methoxy-10,16-dimethyl-12,17-dioxo-N-[(1S)-1-phenylethyl]-8-oxa-11,16-diazatricyclo[16.3.1.0^2,7]docosa-1(22),2,4,6,18,20-hexaene-15-carboxamide] | – | – | > 60 min | 87 % remain. | 70 % remain. | > 60 min | 95 % remain. | > 240 min
COc1ccc2c(c1)-c1cccc(c1)C(=O)N(C)[C@H](C(=O)NCc1cccc3ccccc13)CCC(=O)N[C@H](C)CO2 [Ex. 60, (10R,15S)-4-methoxy-10,16-dimethyl-N-(1-naphthylmethyl)-12,17-dioxo-8-oxa-11,16-diazatricyclo[16.3.1.0^2,7]docosa-1(22),2,4,6,18,20-hexaene-15-carboxamide] | – | – | 8 min | 0 % remain. | 19 % remain. | 25 min | 97 % remain. | > 240 min
C[C@H]1COc2cccc(c2)-c2cccc(c2)C(=O)N(C)[C@H](C(=O)NCCc2ccccc2)CCC(=O)N1 [Ex. 73, (9S,14S)-9,15-dimethyl-11,16-dioxo-N-phenethyl-7-oxa-10,15-diazatricyclo [15.3.1.1^2,6]docosa-1(21),2(22),3,5,17,19-hexaene-14-carboxamide] | – | – | 2 min | 0 % remain. | 0 % remain. | 1 min | 89 % remain. | > 240 min
C[C@H](NC(=O)[C@@H]1CCC(=O)N[C@@H](C)COc2cccc(c2)-c2cccc(c2)C(=O)N1C)c1ccccc1 [Ex. 76, (9S,14S)-9,15-dimethyl-11,16-dioxo-N-[(1S)-1-phenylethyl]-7-oxa-10,15-diazatricyclo[15.3.1.1^2,6]docosa-1(21),2(22),3,5,17,19-hexaene-14-carboxamide] | – | – | 16 min | 4 % remain. | 9 % remain. | 15 min | 88 % remain. | > 240 min
C[C@H]1COc2cccc(c2)-c2cccc(c2)C(=O)N(C)[C@H](C(=O)N2CCC2)CCC(=O)N1 [Ex. 86, (9S,14S)-14-(1-azetanylcarbonyl)-9,15-dimethyl-7-oxa-10,15-diazatricyclo [15.3.1.1^2,6]docosa-1(21),2(22),3,5,17,19-hexaene-11,16-dione] | 60 % remain. | > 240 min | – | – | 71 % remain. | > 60 min | – | –
